Data as given in US20080214808A1, “Preparation of Aseptic 3-[2-[4-((6-Fluoro-1,2-Benzisoxazol-3-Yl)-1-Piperidinyl]-6,7,8,9-Tetrahydro-9-Hydroxy-2-Methyl-4H-Pyrido[1,2-a]Pyrimidin-4-One Palmitate Ester” (priority 2005, published 2008).

Assay: Gamma irradiation of compound (I) in different containers, amounts of (I) and breakdown products by HPLC
Format: physicochemical
From the text: During pharmaceutical development, aseptic formulations of paliperidone palmitate (I) were initially obtained by gamma irradiation.
Compound (I) was irradiated with various doses of gamma rays in different containers.

[1] = Glass container, gamma dose 5 kGY
[2] = Glass container, gamma dose 10 kGY
[3] = Glass container, gamma dose 15 kGY
[4] = Glass container, gamma dose 20 kGY
[5] = Glass container, gamma dose 25 kGY
[6] = Glass container, gamma dose 30 kGY
[7] = Glass/metal container, gamma dose 5 kGY
[8] = Glass/metal container, gamma dose 10 kGY
[9] = Glass/metal container, gamma dose 15 kGY
[10] = Glass/metal container, gamma dose 20 kGY
[11] = Glass/metal container, gamma dose 25 kGY
[12] = Glass/metal container, gamma dose 30 kGY
[13] = Plastic container, gamma dose 15 kGY
[14] = Plastic container, gamma dose 20 kGY
[15] = Plastic container, gamma dose 25 kGY
[16] = gamma irradiation, maximum found

CCCCCCCCCCCCCCCC(=O)OC1CCCn2c1nc(C)c(CCN1CCC(c3noc4cc(F)ccc34)CC1)c2=O (centres unmarked) [(I), 3-[2-[4-(6-fluoro-1,2-benzisoxazol-3-yl)-1-piperidinyl]ethyl]-6,7,8,9-tetrahydro-9-hydroxy-2-methyl-4H-pyrido[1,2-a]pyrimidin-4-one palmitate ester]
amount of (I) [1]: 98.8% | amount of breakdown product (III) [1]: 0.08% | amount of breakdown products (II) [sum of (II-a) and (II-b)] [1]: 0.02% | amount of (I) [2]: 98.7% | amount of breakdown product (III) [2]: 0.15% | amount of breakdown products (II) [sum of (II-a) and (II-b)] [2]: 0.05% | amount of (I) [3]: 98.5% | amount of breakdown product (III) [3]: 0.23% | amount of breakdown products (II) [sum of (II-a) and (II-b)] [3]: 0.11% | amount of (I) [4]: 98.3% | amount of breakdown product (III) [4]: 0.34% | amount of breakdown products (II) [sum of (II-a) and (II-b)] [4]: 0.17% | amount of (I) [5]: 98.2% | amount of breakdown product (III) [5]: 0.36% | amount of breakdown products (II) [sum of (II-a) and (II-b)] [5]: 0.18% | amount of (I) [6]: 98% | amount of breakdown product (III) [6]: 0.46% | amount of breakdown products (II) [sum of (II-a) and (II-b)] [6]: 0.24% | amount of (I) [7]: 98.8% | amount of breakdown product (III) [7]: 0.08% | amount of breakdown products (II) [sum of (II-a) and (II-b)] [7]: 0.02% | amount of (I) [8]: 98.9% | amount of breakdown product (III) [8]: 0.1% | amount of (I) [9]: 98.5% | amount of breakdown product (III) [9]: 0.23% | amount of breakdown products (II) [sum of (II-a) and (II-b)] [9]: 0.11% | amount of (I) [10]: 98.4% | amount of breakdown product (III) [10]: 0.29% | amount of breakdown products (II) [sum of (II-a) and (II-b)] [10]: 0.15% | amount of (I) [11]: 97.2% | amount of breakdown product (III) [11]: 0.35% | amount of breakdown products (II) [sum of (II-a) and (II-b)] [11]: 0.05% | amount of (I) [12]: 98.2% | amount of breakdown product (III) [12]: 0.45% | amount of breakdown products (II) [sum of (II-a) and (II-b)] [12]: 0.21% | amount of (I) [13]: 98.3% | amount of breakdown product (III) [13]: 0.23% | amount of breakdown products (II) [sum of (II-a) and (II-b)] [13]: 0.03% | amount of (I) [14]: 97.9% | amount of breakdown product (III) [14]: 0.29% | amount of breakdown products (II) [sum of (II-a) and (II-b)] [14]: 0.03% | amount of (I) [15]: 97.2% | amount of breakdown product (III) [15]: 0.35% | amount of breakdown products (II) [sum of (II-a) and (II-b)] [15]: 0.06% | breakdown product (III) formed [16]: up to 0.46% | breakdown products (II) [(II-a) and (II-b), co-eluting in HPLC] formed [16]: up to 0.24% | amount of the breakdown products (II) and (III) versus gamma dose (various doses of gamma rays, different containers): increased dose-dependently
